{"source": "patent US4609549A", "about": "“Biologically active substance from Islets-Activating Protein” (Kaken Pharmaceutical Co., Ltd., priority 1983, dated 1986)", "key": {"Solubility": {"test": "Solubility", "format": "physicochemical", "details": "pyridine, 2-mercaptoethanol, aqueous sodium dodecylsulfate and cystine", "experimental": "(§1) The powder of IAP obtained by freeze-drying the aqueous dialysed and de-salted solution is non-deliquescent, and white or light brown in colour, and is soluble in water to the extent of 3 to 5 mg/ml at room temperature. […] When IAP is put into aqueous 6N hydrochloric acid solution, a precipitate white in colour separates out. Addition of sodium sulfate, dry ice plus acetone, ethanol, trichloroacetic acid, aqueous solution of zinc chloride, or aqueous solutions containing several other kinds of metal ions to an aqueous solution of IAP at 4° C., causes the aqueous solution to become turbid and a precipitate to settle out. When IAP is put into a mixture of water and chloroform or of water and n-butanol, IAP gathers on the interface of both liquids."}, "ddY mice": {"test_system": "ddY mice", "test": "Acute toxicity (LD50), intravenous", "format": "in vivo", "details": "i.v., ddY mice (male)", "excerpt": "(§2) The control is non-modified IAP."}, "[1]": {"test": "Stability of IAP (heat, moisture)", "format": "physicochemical", "experimental": "as §1\nIn addition, when IAP is dissolved into aqueous 0.1M phosphate buffer solution of pH of 7.0 containing sodium chloride at 0.5M and the solution is subjected to dialysis against distilled water as the external liquid, the mixed solution becomes turbid once, however, with the progress of dialysis, the white turbidity disappears completely."}, "leukocyte count [2]": {"test_system": "leukocyte count", "test": "Stability in methylamine solution: change with time of ΔLP activity", "format": "in vivo, male Wistar rats", "details": "3.44M methylamine solution (pH 9.5)", "excerpt": "(§3) ΔLP activity=(leukocyte count in sample-administered\n(§4) group)-(leukocyte count in control group)\n(§5) The stability in an amine-containing alkaline solution of the modified IAP of the present invention and an IAP amidino derivative disclosed in Japanese Patent Application Laid-Open No. 129295/80 (Application No. 35877/79) was examined."}, "leukocyte count [3]": {"test_system": "leukocyte count", "test": "Leukocytosis-promoting activity (ΔLP activity) one day after administration", "details": "12 μg/kg i.v., male Wistar rats", "experimental": "V. Leukocytosis-promoting activity (ΔLP activity)\nEach sample is intravenously injected into male Wister rats (about 150 g body weight) at a rate of 12 μg/kg, and the leukocyte count is measured on a daily basis. The leukocyte increment is determined from the difference in leukocyte count between the sample-administered group and the control group.\nas §3, §4\nThe pharmacological activity, acute toxicity, and stability in an alkaline solution, of the resultant products obtained in the Examples were examined in the manners described above.\nas §2"}, "glucose tolerance": {"test_system": "glucose tolerance", "test": "Glucose tolerance", "format": "in vivo", "details": "mammals"}, "[4]": {"test_system": "Epinephrine hyperglycemia", "test": "Epinephrine hyperglycemia inhibitory activity (EpI activity) one day after administration", "format": "in vivo", "details": "12 μg/kg i.v., male Wistar rats", "experimental": "IV. Epinephrine hyperglycemia inhibitory activity (EpI activity)\n(§6) Each sample is intravenously injected to the male Wistar rats (about 150 g body weight) at a dose of 12 μg/kg, and after sample injection, epinephrine is subcutaneously injected to the rats under fast on a daily basis. The difference between blood sugar level before epinephrine injection and that one hour after injection is compared with the difference in the control group to thereby determine the EpI activity (%).\n(§7) ΔGC : control group [(blood sugar level after epinephrine injection)-(blood sugar level before injection)]\n(§8) ΔGT : sample-administered group [(blood sugar level after epinephrine injection)-(blood sugar level before injection)] [formula]\nas §2"}, "secretion of insulin": {"test_system": "secretion of insulin", "test": "Activity of promoting the secretion of insulin", "format": "in vivo, mammals", "excerpt": "The definition of the activity units used in the present invention is described in Japanese Patent Application Laying Open No. 96392/72 which corresponds to G.B. Patent No. 1,569,046."}, "[5]": {"test_system": "pertussis 18-323 strain (I-phase)", "test": "Infection prevention test (survival after intracerebral inoculation of live pertussis bacteria)", "format": "in vivo, Bordetella pertussis (ddY mice, male)", "details": "two weeks after inoculation", "experimental": "(ii) The IAP processed into toxoid with glutaraldehyde (hereinafter referred to as toxoid-processed IAP) used as the comparative example was prepared in the following precedures. To 0.1M phosphate buffer solution (containing 2M urea, pH 7.0) containing IAP (0.5 mg/ml) adjusted to pH 9.0 by adding 1N sodium hydroxide, was added a 25% aqueous solution of glutaraldehyde so that the final concentration of glutaraldehyde would become 0.05%. The mixed solution was reacted under stirring at room temperature for 22 hours. The resultant solution was then sufficiently dialyzed against a 0.1M phosphate buffer solution (containing 2M urea, pH 7.0) to obtain the toxoid-processed IAP.\n(iii) A toxoid-processed reductively methylated IAP was also similarly prepared by using a reductively methylated IAP solution in place of an IAP solution.\nThere were prepared five kinds of the physiological saline solutions containing a dead pertussis vaccine (made by KAKEN PHARMACEUTICAL CO., LTD.), toxoid-processed IAP, toxoid-processed reductively methylated IAP, IAP and reductively methylated IAP, respectively, and 0.1 ml of each of these physiological saline solutions was administered into the peritoneal cavities of the ddY mice (male, 4 weeks old) (13 mice per one group). Two weeks after the administration, the live pertussis 18-323 strain (I-phase) bacteria were inoculated into the encephalon at a rate of 4×10^4cells/animal. […] Used as the control was a group of mice which were treated similarly by giving 0.1 ml of a physiological saline solution alone into the peritoneal cavity."}, "[6]": {"test_system": "Epinephrine hyperglycemia", "test": "Stability in methylamine solution: change with time of EpI activity", "format": "in vivo, male Wistar rats", "details": "3.44M methylamine solution (pH 9.5)", "experimental": "as §6, §7, §8, §5"}, "Isoelectric point": {"test": "Isoelectric point", "format": "physicochemical", "excerpt": "The isoelectric point of IAP determined by the method described in Wringley, C.W., \"J. Chromatogr.\", 36, 362-372 (1968) is pH 8.9±0.5."}}, "data": [{"substance": "IAP: Islets-Activating Protein obtained by the cultivation of suitable strain(s) of the microorganism Bordetella pertussis (Phase I or II)", "values": [{"measurement": "solubility in other solvents", "setting": "Solubility", "value": "soluble in pyridine, 2-mercaptoethanol and aqueous solution of sodium dodecylsulfate and of cystine"}, {"measurement": "LD50", "setting": "ddY mice", "value": 0.215, "unit": "mg/kg"}, {"measurement": "deliquescence of freeze-dried powder", "setting": "[1]", "value": "non-deliquescent"}, {"measurement": "stability of aqueous solution on heating", "setting": "[1]; heated to 80° C. or higher", "value": "the solution becomes turbid white in colour"}, {"measurement": "ΔLP activity", "setting": "leukocyte count [2]; treatment time 0 hr", "value": "144 × 10^2 /mm^3"}, {"measurement": "ΔLP activity", "setting": "leukocyte count [2]; treatment time 24 hr", "value": "141 × 10^2 /mm^3"}, {"measurement": "ΔLP activity", "setting": "leukocyte count [2]; treatment time 48 hr", "value": "138 × 10^2 /mm^3"}, {"measurement": "ΔLP activity", "setting": "leukocyte count [2]; treatment time 72 hr", "value": "139 × 10^2 /mm^3"}, {"measurement": "ΔLP activity", "setting": "leukocyte count [3]", "value": "140.1 × 10^2 /mm^3"}, {"measurement": "activity of improving the glucose tolerance", "setting": "glucose tolerance", "value": "improving the glucose tolerance in mammals"}, {"measurement": "EpI activity", "setting": "[4]", "value": 85.0, "unit": "%"}, {"measurement": "duration of insulin secretion promoting and glucose tolerance improving actions", "setting": "secretion of insulin; after a single administration", "value": "several weeks to several months"}, {"measurement": "activity of promoting the secretion of insulin", "setting": "secretion of insulin; in vivo", "value": "not less than 193 unit/μg"}, {"measurement": "Number of animals which survived/total number of animals tested", "setting": "[5]; 0.04 μg/animal i.p.", "value": "6/13"}, {"measurement": "Survival rate", "setting": "[5]; 0.04 μg/animal i.p.", "value": 46, "unit": "%"}, {"measurement": "Number of animals which survived/total number of animals tested", "setting": "[5]; 0.2 μg/animal i.p.", "value": "8/13"}, {"measurement": "Survival rate", "setting": "[5]; 0.2 μg/animal i.p.", "value": 62, "unit": "%"}, {"measurement": "Number of animals which survived/total number of animals tested", "setting": "[5]; 1 μg/animal i.p.", "value": "3/13"}, {"measurement": "Survival rate", "setting": "[5]; 1 μg/animal i.p.", "value": 23, "unit": "%"}, {"measurement": "EpI activity", "setting": "[6]; treatment time 0 hr", "value": 82.0, "unit": "%"}, {"measurement": "EpI activity", "setting": "[6]; treatment time 24 hr", "value": 83.0, "unit": "%"}, {"measurement": "EpI activity", "setting": "[6]; treatment time 48 hr", "value": 80.5, "unit": "%"}, {"measurement": "EpI activity", "setting": "[6]; treatment time 72 hr", "value": 79.8, "unit": "%"}, {"measurement": "isoelectric point", "setting": "Isoelectric point", "value": "8.9±0.5", "unit": "pH"}]}]}
